The nature of data set [1]: AUC (0 to infinity) in healthy human at […] administered via nasogastric tube by ITT analysis. Format: ADME, organism-based. Also on record: route nasogastric, time infinity. Particulars: plasma, po.
Data set [2] can be described thus: Apparent oral clearance in healthy human at […], po. It is filed as ADME, organism-based. Also on record: route oral. Particulars: in vivo.
A short description of data set [3]: Terminal half life in healthy human at […], po. Format: ADME, organism-based. Particulars: in vivo. Also on record: route oral.
Data set [4] can be described thus: AUClast in healthy human at […], po by ITT analysis. It is filed as ADME, organism-based. Also on record: time 0 - last, route oral. The following applies: plasma.
Data set [5] in a line: AUClast in healthy human at […], po. Format: ADME, organism-based. Also on record: time 0 - last, route oral. The following applies: plasma.
Data set [6] can be described thus: AUC (0 to infinity) in healthy human at […], po. Format: ADME, organism-based. Also on record: route oral, time infinity. The following applies: plasma.
Data set [7] can be described thus: Terminal half life in healthy human at […] administered via nasogastric tube. It is filed as ADME, organism-based. The following applies: in vivo.
Data set [8] is described as follows: Elimination rate in healthy human at […] administered via nasogastric tube. It is filed as ADME, organism-based. The following applies: in vivo.
The nature of data set [9]: Tmax in healthy human at 400 mg, po. The following applies: in vivo.
Data set [10] in a line: Cmax in healthy human at 400 mg, po. The following applies: in vivo.
A short description of data set [11]: AUC (0 to infinity) in healthy human at […] administered via nasogastric tube. Format: ADME, organism-based. The arrangement: route nasogastric, time infinity. Particulars: plasma, po.
Data set [12] is described as follows: Apparent oral clearance in healthy human at […] administered via nasogastric tube. It is filed as ADME, organism-based. The following applies: in vivo. Also on record: route oral.
A short description of data set [13]: Elimination rate in healthy human at […], po. Format: ADME, organism-based. The arrangement: route oral. Particulars: in vivo.
A short description of data set [14]: Cmax in healthy human at […], po by ITT analysis. It is filed as ADME, organism-based. The arrangement: route oral. Particulars: in vivo.
The nature of data set [15]: Cmax in healthy human at […] administered via nasogastric tube. It is filed as ADME, organism-based. Also on record: route nasogastric. Particulars: in vivo, po.
The nature of data set [16]: Tmax in healthy human at […] administered via nasogastric tube. It is filed as ADME, organism-based. The following applies: in vivo.
Data set [17] in a line: AUC (0 to infinity) in healthy human at […], po by ITT analysis. Format: ADME, organism-based. Also on record: time infinity, route oral. Particulars: plasma.
Data set [18] can be described thus: AUClast in healthy human at […] administered via nasogastric tube. It is filed as ADME, organism-based. Also on record: route nasogastric, time 0 - last. The following applies: plasma, po.
The nature of data set [19]: AUClast in healthy human at […] administered via nasogastric tube by ITT analysis. Format: ADME, organism-based. Particulars: plasma, po. The arrangement: time 0 - last, route nasogastric.
Data set [20] in a line: Cmax in healthy human at […] administered via nasogastric tube by ITT analysis. It is filed as ADME, organism-based. Also on record: route nasogastric. The following applies: in vivo, po.

The results in this text go back to ChEMBL document CHEMBL1649520, “Pharmacokinetics of posaconazole administered orally or by nasogastric tube in healthy volunteers” (Antimicrob Agents Chemother, 2009).

Regarding `CC[C@@H]([C@H](C)O)n1ncn(-c2ccc(N3CCN(c4ccc(OC[C@@H]5CO[C@@](Cn6cncn6)(c6ccc(F)cc6F)C5)cc4)CC3)cc2)c1=O` [POSACONAZOLE], the AUC(0-inf) (usually the area under the concentration-time curve extrapolated to infinity) stood at 7210 ng·h/mL in [1], 10900 ng·h/mL in [6], 8400 ng·h/mL in [11] and 9390 ng·h/mL in data set [17]. Further, the CL/F (in general, the apparent clearance, not corrected for the fraction that reaches the circulation) was 822 mL/min in data set [2] and 990 mL/min in data set [12]. Besides, the half-life – broadly, how long it takes for the measured level to halve – is 21.6 h in data set [3] and 23.7 h in data set [7]. The AUC(0-t) (in general, exposure summed from dosing to a finite time, without extrapolation to infinity) in [4] was 9100 ng·h/mL; in data set [5], 10400 ng·h/mL; in data set [18], 8030 ng·h/mL; in data set [19] it was 6950 ng·h/mL. Moreover, the k el was 8.61e-06 s⁻¹ in data set [8] and 9.72e-06 s⁻¹ in [13]. Moreover, the Tmax in [9] and in data set [16] was 4 h in each case. Moreover, the Cmax – broadly, the highest concentration seen after dosing – in data set [10] is 324 ng/mL; in [14], 289 ng/mL; in data set [15], 266 ng/mL; in [20] it was 233 ng/mL.
